Results on 16 molecules are retold here after patent US20230295200A1 (REGENTS OF THE UNIVERSITY OF MICHIGAN, priority 2022, published 2023).

Some results are limits rather than exact numbers.

The target in this assay is T1, STAT6 protein (Homo sapiens, UniProt P42226).
T1 sequence (P42226 1-847): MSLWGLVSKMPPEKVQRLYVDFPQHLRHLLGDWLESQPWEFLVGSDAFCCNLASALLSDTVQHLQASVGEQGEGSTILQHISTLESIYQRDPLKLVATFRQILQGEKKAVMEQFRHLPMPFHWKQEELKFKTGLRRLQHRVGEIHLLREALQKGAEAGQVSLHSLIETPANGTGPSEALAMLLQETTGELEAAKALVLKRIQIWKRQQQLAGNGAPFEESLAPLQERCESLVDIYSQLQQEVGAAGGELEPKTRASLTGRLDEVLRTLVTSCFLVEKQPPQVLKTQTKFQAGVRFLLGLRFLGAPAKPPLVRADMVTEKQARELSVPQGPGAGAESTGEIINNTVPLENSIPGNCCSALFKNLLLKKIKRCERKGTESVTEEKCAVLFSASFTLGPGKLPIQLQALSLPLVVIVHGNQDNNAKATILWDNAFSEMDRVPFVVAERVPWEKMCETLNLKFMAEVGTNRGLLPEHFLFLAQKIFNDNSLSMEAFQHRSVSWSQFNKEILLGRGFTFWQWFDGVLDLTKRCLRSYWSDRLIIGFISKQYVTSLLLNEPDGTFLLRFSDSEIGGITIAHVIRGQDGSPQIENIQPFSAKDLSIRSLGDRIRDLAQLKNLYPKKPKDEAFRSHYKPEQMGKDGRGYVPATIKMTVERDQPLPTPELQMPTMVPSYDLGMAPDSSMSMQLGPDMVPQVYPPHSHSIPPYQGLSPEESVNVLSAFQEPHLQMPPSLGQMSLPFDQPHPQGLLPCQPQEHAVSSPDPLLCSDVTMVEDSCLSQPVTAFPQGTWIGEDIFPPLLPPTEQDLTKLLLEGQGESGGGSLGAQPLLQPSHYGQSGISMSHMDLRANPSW
Briefly: Fluorescence polarization (FP) binding assay, STAT6. To be noted: FP competition, 5 nM fluorescein-labeled tracer, 200 nM protein, PBS pH7.4; read-out: Binding STAT6. The procedure, abridged: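 Competitive FP read-out with 5 nM fluorescein-labeled tracer and 200 nM STAT5 or STAT6 protein in PBS pH 7.4 containing 0.01% BGG, 0.01% Tween-20 and 2 mM DTT. Plates were shaken 15 min, then equilibrated 1 h at room temperature; inhibition constants came from nonlinear curve fitting.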
On the technique in general: In fluorescence polarisation assays a small probe gives low polarisation when free and higher when bound to something large.
Take `CCCC[C@H](NC(=O)c1cc2cc(C(F)(F)P(=O)(O)O)ccc2s1)C(=O)N1CCC[C@H]1C(=O)N1CCO[C@H](c2ccccc2)C1` [Compound 272, (difluoro(2-(((S)-1-oxo-1-((S)-2-((R)-2-phenylmorpholine-4-carbonyl)pyrrolidin-1-yl)hexan-2-yl)carbamoyl)benzo[b]thiophen-5-yl)methyl)phosphonic acid]: the Ki was 100 to 1000 nM.
With `O=C(N[C@@H](Cc1ccc(Br)cc1)C(=O)N1CCC[C@H]1C(=O)N1CCO[C@H](c2ccccc2)C1)c1cc2cc(C(F)(F)P(=O)(O)O)ccc2s1` [Compound 273, ((2-(((S)-3-(4-bromophenyl)-1-oxo-1-((S)-2-((R)-2-phenylmorpholine-4-carbonyl)pyrrolidin-1-yl)propan-2-yl)carbamoyl)benzo[b]thiophen-5-yl)difluoromethyl)phosphonic acid] the figure was 100 to 1000 nM; with `CN(C)CCC[C@H](NC(=O)c1cc2cc(C(F)(F)P(=O)(O)O)ccc2s1)C(=O)N1CCC[C@H]1C(=O)N1CCO[C@H](c2ccccc2)C1` [Compound 274, ((2-(((S)-5-(dimethylamino)-1-oxo-1-((S)-2-((R)-2-phenylmorpholine-4-carbonyl)pyrrolidin-1-yl)pentan-2-yl)carbamoyl)benzo[b]thiophen-5-yl)difluoromethyl)phosphonic acid], 100 to 1000 nM; with `CN(C)CC[C@H](NC(=O)c1cc2cc(C(F)(F)P(=O)(O)O)ccc2s1)C(=O)N1CCC[C@H]1C(=O)N1CCO[C@H](c2ccccc2)C1` [Compound 275, ((2-(((S)-4-(dimethylamino)-1-oxo-1-((S)-2-((R)-2-phenylmorpholine-4-carbonyl)pyrrolidin-1-yl)butan-2-yl)carbamoyl)benzo[b]thiophen-5-yl)difluoromethyl)phosphonic acid], 100 to 1000 nM.
As for `NC(=O)CC[C@H](NC(=O)c1cc2cc(C(F)(F)P(=O)(O)O)ccc2s1)C(=O)N1CCC[C@H]1C(=O)N1CCO[C@H](c2ccccc2)C1` [Compound 276, ((2-(((S)-5-amino-1,5-dioxo-1-((S)-2-((R)-2-phenylmorpholine-4-carbonyl)pyrrolidin-1-yl)pentan-2-yl)carbamoyl)benzo[b]thiophen-5-yl)difluoromethyl)phosphonic acid], the Ki was 100 to 1000 nM.
Consider `CC(C)(C)c1ccc(C[C@H](NC(=O)c2cc3cc(C(F)(F)P(=O)(O)O)ccc3s2)C(=O)N2CCC[C@H]2C(=O)N2CCO[C@H](c3ccccc3)C2)cc1` [Compound 277, ((2-(((S)-3-(4-(tert-butyl)phenyl)-1-oxo-1-((S)-2-((R)-2-phenylmorpholine-4-carbonyl)pyrrolidin-1-yl)propan-2-yl)carbamoyl)benzo[b]thiophen-5-yl)difluoromethyl)phosphonic acid], for which the Ki is < 100 nM.
Then `O=C(N[C@@H](Cc1ccc(F)c(F)c1)C(=O)N1CCC[C@H]1C(=O)N1CCO[C@H](c2ccccc2)C1)c1cc2cc(C(F)(F)P(=O)(O)O)ccc2s1` [Compound 278, ((2-(((S)-3-(3,4-difluorophenyl)-1-oxo-1-((S)-2-((R)-2-phenylmorpholine-4-carbonyl)pyrrolidin-1-yl)propan-2-yl)carbamoyl)benzo[b]thiophen-5-yl)difluoromethyl)phosphonic acid], with 100 to 1000 nM.
Then `O=C(N[C@H](C(=O)N1CCC[C@H]1C(=O)N1CCO[C@H](c2ccccc2)C1)C1CCCCC1)c1cc2cc(C(F)(F)P(=O)(O)O)ccc2s1` [Compound 279, ((2-(((S)-1-cyclohexyl-2-oxo-2-((S)-2-((R)-2-phenylmorpholine-4-carbonyl)pyrrolidin-1-yl)ethyl)carbamoyl)benzo[b]thiophen-5-yl)difluoromethyl)phosphonic acid], with 100 to 1000 nM; and `NCCC[C@H](NC(=O)c1cc2cc(C(F)(F)P(=O)(O)O)ccc2s1)C(=O)N1CCC[C@H]1C(=O)N1CCO[C@H](c2ccccc2)C1` [Compound 280, ((2-(((S)-5-amino-1-oxo-1-((S)-2-((R)-2-phenylmorpholine-4-carbonyl)pyrrolidin-1-yl)pentan-2-yl)carbamoyl)benzo[b]thiophen-5-yl)difluoromethyl)phosphonic acid], with < 100 nM.
With `N#Cc1cccc(C[C@H](NC(=O)c2cc3cc(C(F)(F)P(=O)(O)O)ccc3s2)C(=O)N2CCC[C@H]2C(=O)N2CCO[C@H](c3ccccc3)C2)c1` [Compound 281, ((2-(((S)-3-(3-cyanophenyl)-1-oxo-1-((S)-2-((R)-2-phenylmorpholine-4-carbonyl)pyrrolidin-1-yl)propan-2-yl)carbamoyl)benzo[b]thiophen-5-yl)difluoromethyl)phosphonic acid] the figure was < 100 nM.
For `O=C(N[C@@H](Cc1cccc([N+](=O)[O-])c1)C(=O)N1CCC[C@H]1C(=O)N1CCO[C@H](c2ccccc2)C1)c1cc2cc(C(F)(F)P(=O)(O)O)ccc2s1` [Compound 282, (difluoro(2-(((S)-3-(3-nitrophenyl)-1-oxo-1-((S)-2-((R)-2-phenylmorpholine-4-carbonyl)pyrrolidin-1-yl)propan-2-yl)carbamoyl)benzo[b]thiophen-5-yl)methyl)phosphonic acid], the Ki was < 100 nM.
With `Cc1cccc(C[C@H](NC(=O)c2cc3cc(C(F)(F)P(=O)(O)O)ccc3s2)C(=O)N2CCC[C@H]2C(=O)N2CCO[C@H](c3ccccc3)C2)c1` [Compound 283, (difluoro(2-(((S)-1-oxo-1-((S)-2-((R)-2-phenylmorpholine-4-carbonyl)pyrrolidin-1-yl)-3-(m-tolyl)propan-2-yl)carbamoyl)benzo[b]thiophen-5-yl)methyl)phosphonic acid] the figure was 100 to 1000 nM; with `COc1ccc(C[C@H](NC(=O)c2cc3cc(C(F)(F)P(=O)(O)O)ccc3s2)C(=O)N2CCC[C@H]2C(=O)N2CCO[C@H](c3ccccc3)C2)cc1` [Compound 284, (difluoro(2-(((S)-3-(4-methoxyphenyl)-1-oxo-1-((S)-2-((R)-2-phenylmorpholine-4-carbonyl)pyrrolidin-1-yl)propan-2-yl)carbamoyl)benzo[b]thiophen-5-yl)methyl)phosphonic acid], 100 to 1000 nM.
Then `O=C(N[C@@H](Cc1ccc2ccccc2c1)C(=O)N1CCC[C@H]1C(=O)N1CCO[C@H](c2ccccc2)C1)c1cc2cc(C(F)(F)P(=O)(O)O)ccc2s1` [Compound 285, (difluoro(2-(((S)-3-(naphthalen-2-yl)-1-oxo-1-((S)-2-((R)-2-phenylmorpholine-4-carbonyl)pyrrolidin-1-yl)propan-2-yl)carbamoyl)benzo[b]thiophen-5-yl)methyl)phosphonic acid], with 100 to 1000 nM; and `O=C(N[C@@H](Cc1nc2ccccc2s1)C(=O)N1CCC[C@H]1C(=O)N1CCO[C@H](c2ccccc2)C1)c1cc2cc(C(F)(F)P(=O)(O)O)ccc2s1` [Compound 286, ((2-(((S)-3-(benzo[d]thiazol-2-yl)-1-oxo-1-((S)-2-((R)-2-phenylmorpholine-4-carbonyl)pyrrolidin-1-yl)propan-2-yl)carbamoyl)benzo[b]thiophen-5-yl)difluoromethyl)phosphonic acid], with 100 to 1000 nM.
As to `O=C(N[C@@H](Cc1cccs1)C(=O)N1CCC[C@H]1C(=O)N1CCO[C@H](c2ccccc2)C1)c1cc2cc(C(F)(F)P(=O)(O)O)ccc2s1` [Compound 287, (difluoro(2-(((S)-1-oxo-1-((S)-2-((R)-2-phenylmorpholine-4-carbonyl)pyrrolidin-1-yl)-3-(thiophen-2-yl)propan-2-yl)carbamoyl)benzo[b]thiophen-5-yl)methyl)phosphonic acid], the Ki lay in the range of 100 to 1000 nM.
